The text below walks through data of ChEMBL document CHEMBL4251577, “Synthesis and antiproliferative activity of pyrrolo[2,3-b]pyridine derivatives bearing the 1,8-naphthyridin-2-one moiety” (Eur J Med Chem, 2018).

The IC50 is the concentration that inhibits the measured activity by half.

Test [1] concerns HT-29. As to the kind of experiment: cells. The settings on record: Homo sapiens, HT-29, 72 h.
For test [2], the system named is A549. The test is described as follows: cells. The settings on record: Homo sapiens, A549, 72 h.
Description: Antiproliferative activity against human A549 cells after 72 hrs by MTT assay
Test [3] deals with NCI-H460. The test is described as follows: Antiproliferative activity against human NCI-H460 cells after 72 hrs by MTT assay. Type of test: functional, cell-based. The settings on record: NCI-H460, 72 h. A general note: Formazan colour is commonly taken as a measure of viable cells.
The next test concerns U-87 MG. As to the kind of experiment: Antiproliferative activity against human U87MG cells after 72 hrs by MTT assay. Type of test: functional, cell-based, U-87MG ATCC.
Test [4] relates to HT-29. As to the kind of experiment: Potency index, ratio of foretinib IC50 to compound IC50 for antiproliferative activity against human HT-29 cells. Type of test: functional.
In test [5] the test system is A549. As to the kind of experiment: Potency index, ratio of foretinib IC50 to compound IC50 for antiproliferative activity against human A549 cells. Type of test: functional.
Test [6] relates to NCI-H460. The test is described as follows: Potency index, ratio of foretinib IC50 to compound IC50 for antiproliferative activity against human NCI-H460 cells. It counts as functional.
Test [7] addresses Hepatocyte growth factor receptor (Homo sapiens, UniProt P08581). The test is described as follows: Inhibition of cMET (unknown origin) using poly(Glu,Tyr) 4:1 substrate after 30 mins by HTFR analysis.
Test [8] concerns the target T1, Receptor-type tyrosine-protein kinase FLT3 (Homo sapiens, UniProt P36888).
T1 sequence (P36888 whole entry): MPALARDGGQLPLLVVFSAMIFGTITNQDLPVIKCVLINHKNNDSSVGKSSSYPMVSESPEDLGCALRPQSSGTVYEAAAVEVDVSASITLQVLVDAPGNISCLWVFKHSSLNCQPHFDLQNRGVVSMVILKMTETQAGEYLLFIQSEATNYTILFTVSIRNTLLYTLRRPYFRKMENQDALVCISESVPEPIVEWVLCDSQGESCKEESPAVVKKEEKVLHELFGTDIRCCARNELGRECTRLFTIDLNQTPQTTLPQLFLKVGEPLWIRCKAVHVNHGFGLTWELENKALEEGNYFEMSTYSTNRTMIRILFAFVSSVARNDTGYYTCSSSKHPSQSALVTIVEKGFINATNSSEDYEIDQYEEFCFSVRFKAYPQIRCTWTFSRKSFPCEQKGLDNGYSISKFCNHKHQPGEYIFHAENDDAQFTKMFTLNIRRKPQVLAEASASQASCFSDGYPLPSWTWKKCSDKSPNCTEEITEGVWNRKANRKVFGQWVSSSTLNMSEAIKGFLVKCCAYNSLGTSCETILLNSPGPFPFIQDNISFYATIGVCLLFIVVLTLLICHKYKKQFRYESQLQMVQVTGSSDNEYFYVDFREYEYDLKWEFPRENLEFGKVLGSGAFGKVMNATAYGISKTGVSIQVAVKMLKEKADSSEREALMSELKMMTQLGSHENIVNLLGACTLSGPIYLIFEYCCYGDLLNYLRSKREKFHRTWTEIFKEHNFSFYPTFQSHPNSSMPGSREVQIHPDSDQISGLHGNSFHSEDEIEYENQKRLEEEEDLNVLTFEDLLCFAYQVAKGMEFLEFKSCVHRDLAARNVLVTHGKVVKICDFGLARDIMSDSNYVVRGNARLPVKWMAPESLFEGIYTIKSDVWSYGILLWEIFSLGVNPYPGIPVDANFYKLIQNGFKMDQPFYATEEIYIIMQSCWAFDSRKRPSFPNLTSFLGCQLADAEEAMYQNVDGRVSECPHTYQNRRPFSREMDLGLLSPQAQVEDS
The test is described as follows: Inhibition of Flt-3 (unknown origin) using poly(Glu, Tyr) 4:1 as substrate after 30 mins by HTRF assay. (In general: TR-FRET usually uses a lanthanide donor and a delayed reading to cut background.)

For test [9], the target named is Platelet-derived growth factor receptor beta (Homo sapiens, UniProt P09619). As to the kind of experiment: Inhibition of PDGFRbeta (unknown origin) using poly(Glu, Tyr) 4:1 as substrate after 30 mins by HTRF assay.
Platelet-derived growth factor receptor beta, sequence (P09619 whole entry): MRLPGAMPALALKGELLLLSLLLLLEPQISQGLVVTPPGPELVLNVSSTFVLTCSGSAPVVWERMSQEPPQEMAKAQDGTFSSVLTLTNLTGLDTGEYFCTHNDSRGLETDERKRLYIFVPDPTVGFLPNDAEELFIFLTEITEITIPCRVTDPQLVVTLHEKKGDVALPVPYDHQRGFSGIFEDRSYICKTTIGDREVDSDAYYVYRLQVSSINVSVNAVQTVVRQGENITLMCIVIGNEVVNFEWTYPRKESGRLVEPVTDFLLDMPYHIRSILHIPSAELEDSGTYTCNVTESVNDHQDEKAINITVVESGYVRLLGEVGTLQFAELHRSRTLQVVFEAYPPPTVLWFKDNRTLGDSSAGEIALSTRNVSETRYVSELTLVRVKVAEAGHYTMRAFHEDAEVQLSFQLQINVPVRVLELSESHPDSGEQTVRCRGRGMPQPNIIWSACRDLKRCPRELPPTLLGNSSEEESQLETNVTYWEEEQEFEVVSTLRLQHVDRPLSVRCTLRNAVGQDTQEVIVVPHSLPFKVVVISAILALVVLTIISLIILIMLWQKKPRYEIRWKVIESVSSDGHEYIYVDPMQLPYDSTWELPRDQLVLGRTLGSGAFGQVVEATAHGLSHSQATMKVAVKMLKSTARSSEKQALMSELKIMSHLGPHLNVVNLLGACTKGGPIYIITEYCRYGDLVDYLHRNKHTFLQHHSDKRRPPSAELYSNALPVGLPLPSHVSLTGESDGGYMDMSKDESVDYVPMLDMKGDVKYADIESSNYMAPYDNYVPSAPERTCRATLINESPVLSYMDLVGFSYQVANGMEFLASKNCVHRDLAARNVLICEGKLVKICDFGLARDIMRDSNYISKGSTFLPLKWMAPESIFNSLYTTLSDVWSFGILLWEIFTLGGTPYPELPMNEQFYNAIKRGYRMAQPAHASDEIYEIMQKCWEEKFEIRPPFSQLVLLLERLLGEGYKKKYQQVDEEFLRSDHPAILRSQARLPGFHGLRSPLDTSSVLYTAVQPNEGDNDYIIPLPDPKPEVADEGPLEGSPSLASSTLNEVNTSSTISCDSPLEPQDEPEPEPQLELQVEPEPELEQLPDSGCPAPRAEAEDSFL
In test [10] the target is Vascular endothelial growth factor receptor 2 (Homo sapiens, UniProt P35968). The test is described as follows: Inhibition of VEGFR2 (unknown origin) using poly(Glu, Tyr) 4:1 as substrate after 30 mins by HTRF assay.
Vascular endothelial growth factor receptor 2, sequence (P35968 whole entry): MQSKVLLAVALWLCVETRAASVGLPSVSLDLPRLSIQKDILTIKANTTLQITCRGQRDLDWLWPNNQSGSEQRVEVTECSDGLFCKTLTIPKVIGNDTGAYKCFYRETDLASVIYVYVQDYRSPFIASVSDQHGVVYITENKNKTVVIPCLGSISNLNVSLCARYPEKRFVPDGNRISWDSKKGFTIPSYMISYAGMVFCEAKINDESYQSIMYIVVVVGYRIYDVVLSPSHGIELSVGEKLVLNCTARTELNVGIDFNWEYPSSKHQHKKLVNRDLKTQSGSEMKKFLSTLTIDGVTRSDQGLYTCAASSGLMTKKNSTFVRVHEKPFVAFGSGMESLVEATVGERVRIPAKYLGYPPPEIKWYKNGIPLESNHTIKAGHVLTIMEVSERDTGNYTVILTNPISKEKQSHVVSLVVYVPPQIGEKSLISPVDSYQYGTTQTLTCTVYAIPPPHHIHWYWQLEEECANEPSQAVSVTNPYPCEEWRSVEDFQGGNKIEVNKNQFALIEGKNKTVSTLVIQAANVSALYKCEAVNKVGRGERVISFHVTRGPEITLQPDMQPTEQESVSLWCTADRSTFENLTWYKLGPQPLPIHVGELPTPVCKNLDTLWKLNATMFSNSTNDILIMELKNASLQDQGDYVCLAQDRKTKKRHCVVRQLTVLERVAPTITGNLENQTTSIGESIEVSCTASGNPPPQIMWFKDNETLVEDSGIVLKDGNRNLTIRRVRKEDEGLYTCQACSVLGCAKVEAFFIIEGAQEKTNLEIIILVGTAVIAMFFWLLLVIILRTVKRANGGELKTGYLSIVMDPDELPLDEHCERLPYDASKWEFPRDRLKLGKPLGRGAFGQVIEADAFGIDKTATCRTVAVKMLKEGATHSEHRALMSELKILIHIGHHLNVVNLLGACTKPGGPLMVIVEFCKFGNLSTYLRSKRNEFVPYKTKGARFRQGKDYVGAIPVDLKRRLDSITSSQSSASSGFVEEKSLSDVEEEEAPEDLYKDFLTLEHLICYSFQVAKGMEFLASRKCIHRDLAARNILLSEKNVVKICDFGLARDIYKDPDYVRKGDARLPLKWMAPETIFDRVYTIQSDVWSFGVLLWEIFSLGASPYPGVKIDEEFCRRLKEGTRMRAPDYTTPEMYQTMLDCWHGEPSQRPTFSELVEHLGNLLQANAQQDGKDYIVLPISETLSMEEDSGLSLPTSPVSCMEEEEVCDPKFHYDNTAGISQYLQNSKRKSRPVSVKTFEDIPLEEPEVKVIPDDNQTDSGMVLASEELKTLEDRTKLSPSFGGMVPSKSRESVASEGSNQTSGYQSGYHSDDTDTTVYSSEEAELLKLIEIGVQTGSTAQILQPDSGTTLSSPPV
Test [11] has as its target Epidermal growth factor receptor (Homo sapiens, UniProt P00533). As to the kind of experiment: Inhibition of EGFR (unknown origin) using poly(Glu, Tyr) 4:1 as substrate after 30 mins by HTRF assay.
Test [12] concerns the target Mast/stem cell growth factor receptor Kit (Homo sapiens, UniProt P10721). As to the kind of experiment: Inhibition of cKIT (unknown origin) using poly(Glu, Tyr) 4:1 as substrate after 30 mins by HTRF assay.

Epidermal growth factor receptor, sequence (P00533 whole entry): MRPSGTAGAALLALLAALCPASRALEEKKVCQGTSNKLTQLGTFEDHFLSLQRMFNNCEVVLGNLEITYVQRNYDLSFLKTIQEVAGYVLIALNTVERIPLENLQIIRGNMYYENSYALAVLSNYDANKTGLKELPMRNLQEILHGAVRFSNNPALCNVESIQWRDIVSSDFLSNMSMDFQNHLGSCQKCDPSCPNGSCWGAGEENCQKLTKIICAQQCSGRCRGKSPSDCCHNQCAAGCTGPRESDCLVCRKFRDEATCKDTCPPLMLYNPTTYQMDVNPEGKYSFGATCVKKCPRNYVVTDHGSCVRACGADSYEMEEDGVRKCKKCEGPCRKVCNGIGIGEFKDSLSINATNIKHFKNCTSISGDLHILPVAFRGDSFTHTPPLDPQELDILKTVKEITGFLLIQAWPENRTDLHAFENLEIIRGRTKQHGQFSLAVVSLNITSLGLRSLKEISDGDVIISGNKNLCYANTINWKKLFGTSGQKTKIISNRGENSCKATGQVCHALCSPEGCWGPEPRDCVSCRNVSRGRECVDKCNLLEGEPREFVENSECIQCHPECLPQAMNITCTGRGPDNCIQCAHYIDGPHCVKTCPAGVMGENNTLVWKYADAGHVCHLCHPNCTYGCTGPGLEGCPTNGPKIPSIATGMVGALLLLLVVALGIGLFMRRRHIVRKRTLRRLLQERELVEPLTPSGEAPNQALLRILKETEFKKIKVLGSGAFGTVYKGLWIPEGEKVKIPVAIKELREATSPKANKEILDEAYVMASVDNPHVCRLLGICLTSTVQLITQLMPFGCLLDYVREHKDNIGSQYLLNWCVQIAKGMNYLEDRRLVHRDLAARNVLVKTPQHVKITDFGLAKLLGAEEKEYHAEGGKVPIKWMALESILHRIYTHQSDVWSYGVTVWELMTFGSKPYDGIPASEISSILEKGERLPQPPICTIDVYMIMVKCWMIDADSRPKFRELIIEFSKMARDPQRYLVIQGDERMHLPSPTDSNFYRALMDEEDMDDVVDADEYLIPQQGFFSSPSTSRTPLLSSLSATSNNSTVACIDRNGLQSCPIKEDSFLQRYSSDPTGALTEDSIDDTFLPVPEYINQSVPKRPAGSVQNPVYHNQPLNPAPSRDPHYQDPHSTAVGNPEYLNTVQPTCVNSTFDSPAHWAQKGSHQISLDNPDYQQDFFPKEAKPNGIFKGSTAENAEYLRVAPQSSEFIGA
Hepatocyte growth factor receptor, sequence (P08581 whole entry): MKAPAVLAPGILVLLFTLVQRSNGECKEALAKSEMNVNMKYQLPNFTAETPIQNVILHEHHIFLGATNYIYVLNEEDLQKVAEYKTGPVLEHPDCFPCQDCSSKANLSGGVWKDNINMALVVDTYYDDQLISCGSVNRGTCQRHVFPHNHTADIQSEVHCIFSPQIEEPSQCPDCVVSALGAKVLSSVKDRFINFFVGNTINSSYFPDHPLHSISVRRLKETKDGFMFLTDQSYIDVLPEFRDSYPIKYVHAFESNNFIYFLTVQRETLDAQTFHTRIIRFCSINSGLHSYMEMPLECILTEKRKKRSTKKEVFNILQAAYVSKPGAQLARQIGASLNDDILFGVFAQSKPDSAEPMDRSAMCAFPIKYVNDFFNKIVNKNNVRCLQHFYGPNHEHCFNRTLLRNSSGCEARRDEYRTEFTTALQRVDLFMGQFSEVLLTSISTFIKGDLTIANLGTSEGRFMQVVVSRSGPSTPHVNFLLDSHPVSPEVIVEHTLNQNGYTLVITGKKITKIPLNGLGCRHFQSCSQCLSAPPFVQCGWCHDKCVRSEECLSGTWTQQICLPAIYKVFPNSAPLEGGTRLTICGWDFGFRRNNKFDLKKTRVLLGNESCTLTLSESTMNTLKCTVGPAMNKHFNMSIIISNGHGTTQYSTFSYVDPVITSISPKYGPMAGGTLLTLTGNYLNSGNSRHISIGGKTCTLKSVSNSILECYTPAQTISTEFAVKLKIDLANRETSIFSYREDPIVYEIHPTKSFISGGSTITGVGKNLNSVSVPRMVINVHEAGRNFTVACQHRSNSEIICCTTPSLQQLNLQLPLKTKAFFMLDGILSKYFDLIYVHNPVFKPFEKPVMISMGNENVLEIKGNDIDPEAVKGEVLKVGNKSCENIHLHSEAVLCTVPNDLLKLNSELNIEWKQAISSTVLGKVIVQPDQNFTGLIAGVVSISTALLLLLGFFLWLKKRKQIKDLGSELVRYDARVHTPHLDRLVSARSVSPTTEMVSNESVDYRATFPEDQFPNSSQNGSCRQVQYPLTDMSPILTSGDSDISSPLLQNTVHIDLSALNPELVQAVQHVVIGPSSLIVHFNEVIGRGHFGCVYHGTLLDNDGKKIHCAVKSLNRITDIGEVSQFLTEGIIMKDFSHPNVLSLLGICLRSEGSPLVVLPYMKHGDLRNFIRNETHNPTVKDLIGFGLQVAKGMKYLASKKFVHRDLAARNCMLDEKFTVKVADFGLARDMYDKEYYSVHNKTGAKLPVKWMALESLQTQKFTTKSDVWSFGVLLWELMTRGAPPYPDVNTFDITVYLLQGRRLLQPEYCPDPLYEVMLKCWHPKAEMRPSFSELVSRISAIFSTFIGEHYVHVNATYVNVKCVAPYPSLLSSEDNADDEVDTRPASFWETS

Regarding `O=C(Nc1ccc(Oc2ccnc3[nH]ccc23)cc1)c1cc2cccnc2n(-c2ccc(F)c(Cl)c2)c1=O`, the half-inhibitory concentration (IC50) in the test with HT-29 [1] turned out to be 560 nM; in the test with A549 [2] it was 680 nM.
In the case of `Cn1ccc2c(Oc3ccc(NC(=O)c4cc5cccnc5n(-c5ccc(Br)cc5)c4=O)cc3)ccnc21`, the values for the IC50 in the test on HT-29 [1] and in the test with A549 [2] were 690 nM and 680 nM, respectively.
Take `O=C(Nc1ccc(Oc2ccnc3[nH]ccc23)c(F)c1)c1cc2cccnc2n(-c2ccccc2)c1=O`: the half-inhibitory concentration (IC50) in the test with NCI-H460 [3] stood at 180 nM; in the test with U-87 MG, 1260 nM; in the test on HT-29 [1], 160 nM; in the test on A549 [2], 190 nM.
For `COc1ccc(-n2c(=O)c(C(=O)Nc3ccc(Oc4ccnc5c4ccn5C)c(F)c3)cc3cccnc32)cc1`, the concentration for half-maximal inhibition (IC50) in the test on HT-29 [1] turned out to be 1290 nM; in the test with A549 [2] it was 2750 nM.
Take `Cn1ccc2c(Oc3ccc(NC(=O)c4cc5cccnc5n(-c5ccccc5)c4=O)cc3)ccnc21`: the IC50 in the test with NCI-H460 [3] stood at 560 nM; with U-87 MG it was 5030 nM; in the test on HT-29 [1], 620 nM; in the test with A549 [2], 850 nM.
The corresponding values for `Cn1ccc2c(Oc3ccc(NC(=O)c4cc5cccnc5n(-c5ccc(C(F)(F)F)cc5Cl)c4=O)cc3F)ccnc21` are 6010 nM, 10200 nM, 5830 nM and 3530 nM.
Consider `O=C(Nc1ccc(Oc2ccnc3[nH]ccc23)cc1)c1cc2cccnc2n(-c2ccc(F)cc2)c1=O`, for which the half-inhibitory concentration (IC50) is 190 nM in the test on NCI-H460 [3], 1360 nM with U-87 MG, 160 nM with HT-29 [1] and 210 nM with A549 [2].
Regarding `COc1ccc(-n2c(=O)c(C(=O)Nc3ccc(Oc4ccnc5[nH]ccc45)c(F)c3)cc3cccnc32)cc1`, the half-maximal inhibitory concentration (IC50) was 540 nM in the test with HT-29 [1] and 610 nM in the test with A549 [2].
For `Cn1ccc2c(Oc3ccc(NC(=O)c4cc5cccnc5n(-c5ccc(F)c(Cl)c5)c4=O)cc3)ccnc21`, the IC50 with NCI-H460 [3] turned out to be 1210 nM; in the test with U-87 MG, 2350 nM; in the test on HT-29 [1] it was 1210 nM; with A549 [2], 820 nM.
On to `O=C(Nc1ccc(Oc2ccnc3[nH]ccc23)c(F)c1)c1cc2cccnc2n(-c2ccc(Cl)cc2)c1=O`, for which the half-maximal inhibitory concentration (IC50) was 82 nM in the test on HT-29 [1] and 110 nM in the test with A549 [2].
With `Cn1ccc2c(Oc3ccc(NC(=O)c4cc5cccnc5n(-c5ccc(Cl)cc5)c4=O)cc3F)ccnc21`, the results for the half-maximal inhibitory concentration (IC50) with HT-29 [1] and with A549 [2] were 220 nM and 350 nM, respectively.
As to `Cn1ccc2c(Oc3ccc(NC(=O)c4cc5cccnc5n(-c5ccc(Cl)cc5)c4=O)cc3)ccnc21`, the IC50 in the test on HT-29 [1] came to 730 nM; in the test on A549 [2], 630 nM.
In the case of `O=C(Nc1ccc(Oc2ccnc3[nH]ccc23)cc1)c1cc2cccnc2n(-c2ccccc2)c1=O`, the half-inhibitory concentration (IC50) with NCI-H460 [3] came to 380 nM; in the test with U-87 MG, 1580 nM; in the test on HT-29 [1] it was 290 nM; in the test on A549 [2] it was 360 nM.
For `Cn1ccc2c(Oc3ccc(NC(=O)c4cc5cccnc5n(-c5ccc(F)c(Cl)c5)c4=O)cc3F)ccnc21`, the IC50 with HT-29 [1] is 2460 nM; in the test on A549 [2] it was 3560 nM.
`COc1ccc(-n2c(=O)c(C(=O)Nc3ccc(Oc4ccnc5[nH]ccc45)cc3)cc3cccnc32)cc1`: the IC50 with NCI-H460 [3] turned out to be 960 nM; in the test with U-87 MG, 2350 nM; with HT-29 [1] it was 1260 nM; in the test with A549 [2], 930 nM.
The corresponding values for `Cn1ccc2c(Oc3ccc(NC(=O)c4cc5cccnc5n(-c5ccccc5)c4=O)cc3F)ccnc21` are 550 nM, 3590 nM, 510 nM and 430 nM.
The corresponding values for `COc1ccc(-n2c(=O)c(C(=O)Nc3ccc(Oc4ccnc5c4ccn5C)cc3)cc3cccnc32)cc1` are 1920 nM, 5150 nM, 2050 nM and 3460 nM.
The corresponding values for `O=C(Nc1ccc(Oc2ccnc3[nH]ccc23)cc1)c1cc2cccnc2n(-c2ccc(C(F)(F)F)cc2Cl)c1=O` are 1950 nM, 6030 nM, 2160 nM and 3230 nM.
`O=C(Nc1ccc(Oc2ccnc3[nH]ccc23)c(F)c1)c1cc2cccnc2n(-c2ccc(F)c(Cl)c2)c1=O`: the half-inhibitory concentration (IC50) with NCI-H460 [3] is 1050 nM; in the test with U-87 MG, 5230 nM; with HT-29 [1], 310 nM; in the test with A549 [2], 630 nM.
The corresponding values for `Cn1ccc2c(Oc3ccc(NC(=O)c4cc5cccnc5n(-c5ccc(Br)cc5)c4=O)cc3F)ccnc21` are 420 nM, 2580 nM, 330 nM and 390 nM.
`O=C(Nc1ccc(Oc2ccnc3[nH]ccc23)cc1)c1cc2cccnc2n(-c2ccc(Cl)cc2)c1=O`: the IC50 amounted to 290 nM with NCI-H460 [3], 3370 nM in the test with U-87 MG, 280 nM in the test with HT-29 [1] and 290 nM with A549 [2].
Turning to `O=C(Nc1ccc(Oc2ccnc3[nH]ccc23)c(F)c1)c1cc2cccnc2n(-c2ccc(Br)cc2)c1=O`, the half-maximal inhibitory concentration (IC50) with NCI-H460 [3] was found to be 260 nM; in the test with U-87 MG, 1510 nM; in the test with HT-29 [1], 120 nM; in the test with A549 [2] it was 210 nM.
On to `O=C(Nc1ccc(Oc2ccnc3[nH]ccc23)cc1)c1cc2cccnc2n(-c2ccc(Br)cc2F)c1=O`, for which the half-inhibitory concentration (IC50) worked out at 2360 nM in the test with HT-29 [1] and 1570 nM with A549 [2].
Taken in the same sequence, the figures for `Cn1ccc2c(Oc3ccc(NC(=O)c4cc5cccnc5n(-c5ccc(Br)cc5F)c4=O)cc3)ccnc21` were 2580 nM and 1630 nM.
In the case of `O=C(Nc1ccc(Oc2ccnc3[nH]ccc23)c(F)c1)c1cc2cccnc2n(-c2ccc(F)cc2)c1=O`, the IC50 was 87 nM with NCI-H460 [3]; 620 nM with U-87 MG; 1.92 nM in test [7]; 1.16 nM in [8]; 1.81 nM in [9]; 152 nM in test [10]. Also, the half-inhibitory concentration (IC50) in [11] worked out at 633 nM; in [12], 684 nM; with HT-29 [1] it was 36 nM; with A549 [2], 62 nM. The “Ratio IC50” value in the test with HT-29 [4] came to 7.2; in the test on A549 [5], 5.2; in the test on NCI-H460 [6] it was 3.2.
Regarding `O=C(Nc1ccc(Oc2ccnc3[nH]ccc23)c(F)c1)c1cc2cccnc2n(-c2ccc(C(F)(F)F)cc2Cl)c1=O`, the IC50 in the test on HT-29 [1] came to 1360 nM; in the test on A549 [2], 1020 nM.
On to `Cn1ccc2c(Oc3ccc(NC(=O)c4cc5cccnc5n(-c5ccc(F)cc5)c4=O)cc3F)ccnc21`, for which the IC50 amounted to 250 nM with NCI-H460 [3], 1320 nM in the test with U-87 MG, 160 nM with HT-29 [1] and 280 nM with A549 [2].
`O=C(Nc1ccc(Oc2ccnc3[nH]ccc23)cc1)c1cc2cccnc2n(-c2ccc(Br)cc2)c1=O`: the IC50 turned out to be 270 nM with HT-29 [1] and 280 nM in the test on A549 [2].
As to `Cn1ccc2c(Oc3ccc(NC(=O)c4cc5cccnc5n(-c5ccc(F)cc5)c4=O)cc3)ccnc21`, the IC50 with NCI-H460 [3] came to 260 nM; in the test with U-87 MG, 2120 nM; in the test on HT-29 [1] it was 250 nM; with A549 [2], 210 nM.
The corresponding values for `Cn1ccc2c(Oc3ccc(NC(=O)c4cc5cccnc5n(-c5ccc(C(F)(F)F)cc5Cl)c4=O)cc3)ccnc21` are 6950 nM, 12600 nM, 6050 nM and 8250 nM.
`Cn1ccc2c(Oc3ccc(NC(=O)c4cc5cccnc5n(-c5ccc(Br)cc5F)c4=O)cc3F)ccnc21`: the half-inhibitory concentration (IC50) in the test on NCI-H460 [3] was 3150 nM; in the test on U-87 MG, 6470 nM; in the test with HT-29 [1], 3290 nM; with A549 [2], 2690 nM.
`O=C(Nc1ccc(Oc2ccnc3[nH]ccc23)c(F)c1)c1cc2cccnc2n(-c2ccc(Br)cc2F)c1=O`: the IC50 in the test with HT-29 [1] stood at 820 nM; in the test on A549 [2], 460 nM.
